In US8637470B2, “Small humanin-like peptides” (The Regents of the University of California, priority 2008, dated 2014):
Entries after “also recorded” stand apart in the source; their conditions may differ. Where no end group is shown, it is not given here.

What was measured:
[1] = test system: Mouse primary cortical neurons; experiment: Protection of primary cortical neurons from Aβ-induced cell death (Calcein-AM); format: cell-based; conditions: 72 h
Method: SHLPs protect neurons from Aβ-induced apoptosis. When it was first discovered, HN was described as a potent neural survival factor with clinical implications as a therapeutic agent against neurodegenerative diseases such as Alzheimer's Disease. Since many of the SHLPs appear to be functionally related to HN, SHLPs were tested as potential neuroprotective factors. Mouse primary cortical neurons were incubated with 25 μM Aβ1-43 in the presence or absence of 100 nM SHLP2 or 3, HNG (positive control) or 1 nM colivelin (positive control). After 72 h, neuronal viability was assessed by Calcein-AM staining followed by fluorescence microscopy (FIG. 13).

S. cerevisiae = experiment: Yeast heat shock survival; format: cell-based; conditions: 10 μM peptide, 90° heat shock
Method: SHLPs enhance stress resistance in yeast. The ability of SHLPs to enhance stress resistance in yeast was tested. The ability of yeast to survive heat shock after being treated with different peptides is a commonly used method to test the ability of peptides to enhance yeast survival.

biotinylated-HN = biotinylated-HN (Homo sapiens, UniProt Q8IVG9); experiment: Dot-blot binding to biotinylated-HN; conditions: 2, 5 or 10 nmol peptide dotted on nitrocellulose
Method: To test a dimerization hypothesis, we performed a dot-blot using biotinylated-HN. Two, 5 or 10 nmol IGF-I (negative control), HN (positive control) or SHLP peptide were dotted on to nitrocellulose membrane, and their ability to bind to biotinylated-HN was assessed immunologically. […] Specific interactions that occur may be determined using, e.g., dot blots with biotinylated SHLPs, and/or antibodies against specific SHLPs.

[2] = test system: Mouse NIT-1 insulinoma β-cells; experiment: Apoptosis ELISA (fragmentation of histone-associated DNA) in NIT-1 cells; format: cell-based; conditions: NIT-1, serum starved 24 h, then 24 h with 100 nM peptide
Method: (§1) SHLPs are anti-apoptotic in 22RV1 prostate cancer cells and NIT-1 β-cells. […] Mouse NIT-1 insulinoma β-cells and 22RV1 human prostate cancer cells were serum starved for 24 h, followed by 24 h incubation with 100 nM scrambled control peptide, HN or SHLPs. Apoptosis was assessed and quantified by ELISA for fragmentation of histone-associated DNA.
(§2) ERK activation is necessary for SHLP-induced inhibition of apoptosis in NIT-1 and 22RV1 cells. To determine the significance of ERK activation for apoptosis inhibition by SHLPs 2 and 3, PD98059 (PD), a specific chemical inhibitor of ERK1/2, was utilized. 22RV1 and NIT-1 cells were serum starved for 24 h in the presence or absence of 25 μM PD or 1 μM wortmannin (PI3-kinase inhibitor; negative control), followed by 24 h incubation with […] scrambled control peptide, SHLP2 or SHLP3. Apoptosis was then assessed by ELISA for fragmentation of histone-associated DNA.
Role of IGFBP-3 in effects of SHLPs on cell survival. Since IGFBP-3 is an important regulator of HN action, IGFBP-3 was tested for a possible role in regulating the anti- or pro-apoptotic actions of SHLPs. NIT-1 cells were incubated with 1 μg/ml IGFBP-3±0, 10, 100 or 1000 nM SHLP2 or 3 for 24 h. Apoptosis induction was assessed by ELISA for fragmentation of histone-associated DNA.
Co-incubation of SHLPs. To evaluate therapeutic uses involving co-treatment with SHLPs, the effect of HN±SHLPs on apoptosis was tested in both 22RV1 and NIT-1 cells. Cells were incubated in SF media for 24 h followed by 24 h with 100 nM HN, SHLP or peptide combination. Apoptosis was assessed by ELISA for fragmentation of histone-associated DNA. Cells were treated with all possible double peptide combinations. Although many peptide combinations had no additive or combined effects compared with the actions of the peptides individually, co-treatment with certain combinations led to unexpected functional changes (FIG. 11). […] Thus, specific SHLPs may either act on complementary pathways, or interact with each other, leading to change of function of one or both peptides. When the same experiments were repeated in NIT-1 cells, similar, but different, change of function effects were observed (FIG. 11B).

[3] = test system: 22RV1 human prostate cancer cells; experiment: Apoptosis ELISA (fragmentation of histone-associated DNA) in 22RV1 cells; format: cell-based; conditions: 22RV1, serum starved 24 h, then 24 h with 100 nM peptide
Method: as §1, §2
STAT3 Activation is also necessary for SHLP-induced cell survival in 22RV1 cells. Since SHLPs 2 and 3 both stimulate STAT3 phosphorylation in addition to ERK activation, the hypothesis that STAT3 activation occurs downstream of ERK1/2 was tested using a specific chemical inhibitor against STAT3, stattic. 22RV1 cells were incubated for 24 h in SF media in the presence or absence of 20 μM stattic followed by 24 h incubation with 100 nM scrambled control peptide, SHLP2 or SHLP3. Apoptosis was assessed by ELISA for fragmentation of histone-associated DNA. […]

ERK = ERK activation in 22RV1 cells (immunoblotting, ELISA); format: cell-based, human; conditions: 22RV1, 100 nM
Method: Characterization of the intracellular signaling pathways activated by SHLPs. To determine a mechanism for the growth and apoptosis effects of SHLPs, SHLPs were tested for the ability to modulate activation of intracellular signaling pathways. 22RV1 cells in SF media were treated with 100 nM SHLP 1-5 and whole cell extracts were harvested after 15 min, 30 min, 2 h, 4 h, 8 h and 24 h. Proteins were separated by SDS-PAGE and analyzed by immunoblotting.
To test the hypothesis that SHLPs may act in concert to regulate intracellular signaling, 22RV1 cells were co-treated with SHLPs 2 and 3, and ERK activation was assessed.
Since HN causes activation of STAT3, SHLPs 2 and 3 were also tested for effects on STAT3. […] To more accurately quantify the ERK phosphorylation caused by SHLPs 2 and 3, we repeated the experiment as described above but used a commercially available ERK ELISA to assess ERK phosphorylation. Optimal ERK activation by SHLP2 was 9-fold after 24 h, whilst optimal activation by SHLP3 was 12-fold after 2 h (FIG. 5).

[4] = test system: 22RV1 human prostate cancer cells; experiment: Cell proliferation (cell number by MTT/MTS cleavage) in 22RV1 cells; format: cell-based; conditions: 22RV1, 100 nM peptide, 72 h
Method: (§3) SHLPs exert distinct effects on cell proliferation. Whether SHLPs have the capacity to influence cell proliferation, in addition to their intrinsic effects on apoptosis induction, was also investigated. Mouse NIT-1 insulinoma β-cells and 22RV1 human prostate cancer cells were serum starved for 24 h, followed by 72 h incubation with 100 nM scrambled control peptide, HN or SHLPs. Cell number, as a measure of cell proliferation, was assessed by cleavage of MTT substrate.
Pro-apoptotic effect on human prostate cancer cells in vitro. To assess the ability of SHLP6 to induce apoptosis in human prostate cancer cells, PC-3, 22RV1 or DU145 cells were incubated in serum free (SF) media for 24 h followed by 24 h incubation with 1 μM scrambled (control) peptide or SHLP6. Apoptosis was assessed by ELISA for fragmentation of histone-associated DNA. In each cell line tested, SHLP6 induced apoptosis by at least 2-fold (FIG. 2), confirming highly significant physiological effects of this novel peptide. To determine whether the effects of SHLP6 were specific to induction of apoptosis, or if it also elicited growth-inhibitory effects, PC-3, DU-145, 22RV1, LAPC4 and LNCaP cells were incubated in SF media for 24 h followed by 72 h incubation with 1 μM SHLP6. Cell number, as a measure of cell proliferation, was assessed by cleavage of MTS substrate.

[5] = test system: Mouse NIT-1 insulinoma β-cells; experiment: Cell proliferation (cell number by MTT/MTS cleavage) in NIT-1 cells; format: cell-based; conditions: NIT-1, 100 nM peptide, 72 h
Method: as §3

[6] = test system: 22RV1 prostate cancer xenografts; conditions: mouse, in vivo, ip, 4 mg/kg/day
Method: Inhibition of 22RV1 xenograft tumor growth and angiogenesis in vivo. In light of the pro-apoptotic actions of SHLP6 in vitro and the association of many cancers with mitochondrial dysfunction, the effect of SHLP6 on tumor growth was investigated in vivo. SCID mice harboring 22RV1 prostate cancer xenografts were treated with 4 mg/kg/day SHLP6 or scrambled control peptide by daily i.p. injection for 7 days.
To assess the mechanism underlying the reduction in tumor growth, tumor apoptosis (TUNEL), angiogenesis (VEGF) and tumor cell proliferation (PCNA; not shown) were assessed by IHC (FIG. 19). […] SHLP6 therefore has great potential as an anti-cancer agent.

| Substance | Binding to biotinylated-HN (dot-blot) (biotinylated-HN) | Apoptosis (fragmentation of histone-associated DNA) [3] | Cell number as a measure of cell proliferation [4] | Cell number as a measure of cell proliferation [5] | also measured |
| --- | --- | --- | --- | --- | --- |
| HNG: HNG (S14G), hyper-potent HN analog (MAPRGFSCLLLLTGEIDLPVKRRA; Humanin; UniProt Q8IVG9 1-24, looked up, variant S14G) [reference compound] | – | – | – | – | Neuronal viability against Aβ-induced cell death ([1]; 25 μM Aβ1-43, 100 nM peptide): inhibited |
| MAPRGFSCLLLLTSEIDLPVKRRA [HN, reference compound] | dimerize/multimerize with itself | – | – | – | Yeast survival of heat shock (S. cerevisiae): allowed the yeast to withstand 90° heat shock; Apoptosis (fragmentation of histone-associated DNA) [2]: anti-apoptotic effects |
| MCHWAGGASNTGDARGDVFGKQAG [SHLP1, small humanin-like peptide, mtDNA 2490-2561] | no interaction | minimal effect | slightly stimulated the proliferation | slightly stimulated the proliferation | Duration of sustained ERK phosphorylation (ERK): approximately 8 h; Increase in ERK phosphorylation (immunoblotting) (ERK; within 30 min): 5 fold |
| MLDQDIPMVQPLLKVRLFND [SHLP6] | – | – | – | – | Signs of toxicity [6]: no detectable signs of toxicity |
| MLEVMFLVNRRGKICRVPFTFFNLSL [SHLP4, small humanin-like peptide, mtDNA 2446-2524] | very strong interactions; also recorded: binds | minimal effect | slightly stimulated the proliferation | slightly stimulated the proliferation | Apoptosis (fragmentation of histone-associated DNA) [2]: anti-apoptotic effects |
| MYCSEVGFCSEVAPTEIFNAGLVV [SHLP5, small humanin-like peptide, mtDNA 2785-2856] | – | minimal effect | slightly stimulated the proliferation | slightly stimulated the proliferation | ERK activation profile (immunoblotting) (ERK; 15 min to 24 h): no observable effect |
| colivelin [reference compound] | – | – | – | – | Neuronal viability against Aβ-induced cell death ([1]; 25 μM Aβ1-43, 1 nM colivelin): inhibited |
